Where a name gives a salt, the structure may show the parent alone. Read-outs that look alike come from different tables or passages of the source.
Experiments:
Integrin αvβ3 = molecular target: T1, Integrin αvβ3 (Homo sapiens, UniProt P05106+P06756); assay: Integrin αvβ3 binding affinity test
T1 construct: purchased Chemicon International, Inc
Method: (§1) […] αvβ3 (Chemicon International, Inc.) was immobilized on each well of a 96-well plate (Corning Inc.). Each well was blocked with a 1% Block Ace (DS Pharma Biomedical Co., Ltd) solution and then washed with T-PBS (PBS containing 0.05% Tween 20). Evaluation compound solutions having a 2-fold concentration (10 concentrations of 3.16-fold dilutions from 0.3 μmol/L, buffer (20 mM Tris-HCl pH 7.5, 150 mM NaCl, 1 mM CaCl2, 1 mM MgCl2, and 1 mM MnCl2)) and a 4 μg/mL biotinylated vitronectin solution (vitronectin (Upstate Biotechnology Inc.) was labeled with EZ-Link Sulfo-NHS-Biotinylation Kit (Pierce/Thermo Fisher Scientific Inc.) and then concentration-adjusted) were each added at 50 μL/well, and the plate was shaken at room temperature for 2 hours. After washing with T-PBS, a 0.2 μg/mL avidin peroxidase (Pierce/Thermo Fisher Scientific Inc.) solution was added thereto, and the plate was shaken at room temperature for 1 hour. After washing with T-PBS, color was developed by an o-phenylenediamine (Sigma-Aldrich Inc.) solution (the reaction was terminated by the addition of 4 mol/L sulfuric acid), and the absorbance was measured (490 nm, Reference: 595 nm). The IC50 value was calculated using XLfit 3.0 (ID Business Solutions Ltd.). RGDfV (Bachem AG) was measured in duplicate as a QC sample for each plate.

Integrin αvβ5 = molecular target: T2, Integrin αvβ5 (Homo sapiens, UniProt P06756+P18084); assay: Integrin αvβ5 binding affinity test
T2 construct: purchased Chemicon International, Inc
Method: as §1, with “αvβ5” for “αvβ3”, “PBST (10 mM Na2HPO4 pH 7.5, 150 mM NaCl, and 0.01%” for “T-PBS (PBS containing 0.05%”, “PBST,” for “T-PBS,”

[1] = inhibition of biotinylated vitronectin binding to immobilized αvβ3, read-out: IC50 value αv β3
[2] = inhibition of biotinylated vitronectin binding to immobilized αvβ5, read-out: IC50 value αvβ5

T2 sequence (P06756 31-889 limits assumed): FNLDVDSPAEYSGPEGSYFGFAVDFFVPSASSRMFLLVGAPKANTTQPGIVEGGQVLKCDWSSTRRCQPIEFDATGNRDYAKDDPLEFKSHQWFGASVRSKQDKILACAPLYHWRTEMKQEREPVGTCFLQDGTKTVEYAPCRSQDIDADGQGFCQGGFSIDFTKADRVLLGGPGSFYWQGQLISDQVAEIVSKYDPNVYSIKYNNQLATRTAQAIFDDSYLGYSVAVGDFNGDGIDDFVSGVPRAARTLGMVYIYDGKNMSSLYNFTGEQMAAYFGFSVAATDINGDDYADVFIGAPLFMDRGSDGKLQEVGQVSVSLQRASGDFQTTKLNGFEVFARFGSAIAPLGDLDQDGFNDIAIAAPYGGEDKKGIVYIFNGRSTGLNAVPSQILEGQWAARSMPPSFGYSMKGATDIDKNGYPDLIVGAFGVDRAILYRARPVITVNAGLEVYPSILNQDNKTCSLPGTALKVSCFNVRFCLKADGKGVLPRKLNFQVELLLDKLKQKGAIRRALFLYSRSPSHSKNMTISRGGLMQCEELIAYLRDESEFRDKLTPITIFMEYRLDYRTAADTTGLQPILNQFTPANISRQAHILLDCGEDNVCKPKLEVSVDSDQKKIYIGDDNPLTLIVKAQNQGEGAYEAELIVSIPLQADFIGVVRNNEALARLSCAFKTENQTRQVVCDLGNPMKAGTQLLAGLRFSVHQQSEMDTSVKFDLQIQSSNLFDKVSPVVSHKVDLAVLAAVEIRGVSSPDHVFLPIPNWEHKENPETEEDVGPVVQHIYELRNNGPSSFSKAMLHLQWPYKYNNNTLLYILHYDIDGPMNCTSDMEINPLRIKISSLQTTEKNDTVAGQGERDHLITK
T2 sequence (P06756 891-1048 partner limits assumed): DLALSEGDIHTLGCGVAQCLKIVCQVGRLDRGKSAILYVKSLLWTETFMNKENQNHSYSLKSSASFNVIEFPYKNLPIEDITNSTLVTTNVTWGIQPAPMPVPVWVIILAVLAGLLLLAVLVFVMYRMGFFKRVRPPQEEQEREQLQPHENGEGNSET
T2 sequence (P18084 24-799): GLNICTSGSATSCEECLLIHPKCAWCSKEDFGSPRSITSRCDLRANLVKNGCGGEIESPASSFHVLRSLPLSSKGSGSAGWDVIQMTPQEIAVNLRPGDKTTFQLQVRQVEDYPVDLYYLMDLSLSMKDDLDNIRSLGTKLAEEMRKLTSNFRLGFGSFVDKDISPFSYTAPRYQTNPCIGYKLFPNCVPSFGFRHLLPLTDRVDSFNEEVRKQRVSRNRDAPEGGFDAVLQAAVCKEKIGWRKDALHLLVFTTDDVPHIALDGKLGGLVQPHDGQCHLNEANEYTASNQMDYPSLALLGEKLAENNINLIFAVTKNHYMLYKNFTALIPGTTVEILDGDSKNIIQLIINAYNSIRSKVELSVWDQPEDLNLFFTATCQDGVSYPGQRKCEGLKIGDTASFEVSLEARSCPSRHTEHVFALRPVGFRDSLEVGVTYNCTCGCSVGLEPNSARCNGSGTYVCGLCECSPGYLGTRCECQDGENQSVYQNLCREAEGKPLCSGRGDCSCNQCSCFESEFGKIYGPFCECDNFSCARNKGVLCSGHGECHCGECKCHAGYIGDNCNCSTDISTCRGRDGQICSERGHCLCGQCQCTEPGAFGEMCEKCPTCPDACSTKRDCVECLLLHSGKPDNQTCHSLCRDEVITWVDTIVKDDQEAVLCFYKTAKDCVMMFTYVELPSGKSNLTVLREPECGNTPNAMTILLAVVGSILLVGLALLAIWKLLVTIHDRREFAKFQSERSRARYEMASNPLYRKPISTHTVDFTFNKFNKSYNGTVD
T1 sequence (P06756 31-889 limits assumed): as the sequence (P06756 31-889 limits assumed) above
T1 sequence (P06756 891-1048 partner limits assumed): as the sequence (P06756 891-1048 partner limits assumed) above
T1 sequence (P05106 27-788): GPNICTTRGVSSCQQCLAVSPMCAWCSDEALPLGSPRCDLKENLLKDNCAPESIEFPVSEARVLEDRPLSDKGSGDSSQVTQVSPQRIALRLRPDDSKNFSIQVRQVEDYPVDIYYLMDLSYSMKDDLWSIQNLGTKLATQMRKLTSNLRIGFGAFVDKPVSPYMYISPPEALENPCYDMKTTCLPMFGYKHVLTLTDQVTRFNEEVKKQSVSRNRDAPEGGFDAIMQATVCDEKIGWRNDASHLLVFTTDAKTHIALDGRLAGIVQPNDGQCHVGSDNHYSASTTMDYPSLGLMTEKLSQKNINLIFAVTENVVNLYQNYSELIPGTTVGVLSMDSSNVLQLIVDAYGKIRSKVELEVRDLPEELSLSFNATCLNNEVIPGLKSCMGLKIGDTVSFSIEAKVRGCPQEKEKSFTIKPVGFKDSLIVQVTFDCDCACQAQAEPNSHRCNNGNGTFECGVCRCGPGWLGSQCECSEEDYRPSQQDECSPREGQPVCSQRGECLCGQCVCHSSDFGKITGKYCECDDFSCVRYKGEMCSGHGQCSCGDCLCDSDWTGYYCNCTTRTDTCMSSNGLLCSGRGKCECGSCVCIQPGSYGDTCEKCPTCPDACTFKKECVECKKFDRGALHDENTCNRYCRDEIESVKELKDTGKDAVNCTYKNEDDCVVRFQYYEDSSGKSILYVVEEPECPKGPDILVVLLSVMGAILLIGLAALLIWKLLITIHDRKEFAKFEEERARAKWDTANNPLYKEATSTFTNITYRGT

Structure (SMILES) | IC50 (Integrin αvβ3; [1]) | IC50 (Integrin αvβ5; [2]) | IC50 (Integrin αvβ3) | IC50 (Integrin αvβ5)
Cc1cc(OCCCC(=O)NCCNC(=O)[C@H](CS(=O)(=O)O)NC(=O)[C@H](CS(=O)(=O)O)NC(=O)CN2CCN(CC(=O)O)CCN(CC(=O)O)CCN(CC(=O)O)CC2)cc(C)c1S(=O)(=O)N[C@@H](CNC(=O)CCCCc1ccc2c(n1)NCCC2)C(=O)O [Compound O10, 2,2′,2′-(10-((4R,7R)-16-(4-(N—((S)-1-carboxy-2-(5-(5,6,7,8-tetrahydro-1,8-naphthyridin-2-yl)pentanamido)ethyl)sulfamoyl)-3,5-dimethylphenoxy)-2,5,8,13-tetraoxo-4,7-bis(sulfomethyl)-3,6,9,12-tetraazahexadecyl)-1,4,7,10-tetraazacyclododecane-1,4,7-triyl)triacetic acid] | < 1 nM | < 1 nM | – | –
Cc1cc(OCCCC(=O)NCCNC(=O)[C@H](CS(=O)(=O)O)NC(=O)CN2CCN(CC(=O)O)CCN(CC(=O)O)CCN(CC(=O)O)CC2)cc(C)c1S(=O)(=O)N[C@@H](CNC(=O)CCCCc1ccc2c(n1)NCCC2)C(=O)O [Compound P2, 2,2′,2′-(10-(2-(((R)-1-((2-(4-(4-(N—((S)-1-carboxy-2-(5-(5,6,7,8-tetrahydro-1,8-naphthyridin-2-yl)pentanamido)ethyl)sulfamoyl)-3,5-dimethylphenoxy)butanamido)ethyl)amino)-1-oxo-3-sulfopropan-2-yl)amino)-2-oxoethyl)-1,4,7,10-tetraazacyclododecane-1,4,7-triyl)triacetic acid] | < 1 nM | < 1 nM | – | –
Cc1cc(OCCCC(=O)NCCNC(=O)[C@H](CS(=O)(=O)O)NC(=O)[C@H](CS(=O)(=O)O)NC(=S)Nc2ccc(C[C@@H](CN(CC(=O)O)CC(C)N(CC(=O)O)CC(=O)O)N(CC(=O)O)CC(=O)O)cc2)cc(C)c1S(=O)(=O)N[C@@H](CNC(=O)c1ccc(CCc2ccc3c(n2)NCCC3)cc1)C(=O)O (stereo partly drawn) [Compound R3, 2,2′-((1-(((S)-2-(bis(carboxymethyl)amino)-3-(4-(3-((R)-1-(((R)-1-((2-(4-(4-(N—((S)-1-carboxy-2-(4-(2-(5,6,7,8-tetrahydro-1,8-naphthyridin-2-yl)ethyl)benzamido)ethyl)sulfamoyl)-3,5-dimethylphenoxy)butanamido)ethyl)amino)-1-oxo-3-sulfopropan-2-yl)amino)-1-oxo-3-sulfopropan-2-yl)thioureido)phenyl)propyl) (carboxymethyl)amino)propan-2-yl)azanediyl)diacetic acid] | < 1 nM | < 1 nM | – | –
Cc1cc(OCCCC(=O)NCCNC(=O)CN2CCN(CC(=O)O)CCN(CC(=O)O)CCN(CC(=O)O)CC2)cc(C)c1S(=O)(=O)N[C@@H](CNC(=O)c1ccc(CCc2ccc3c(n2)NCCC3)cc1)C(=O)O [Compound S2, (S)-2,2′,2″-(10-(2-((2-(4-(4-(N-(1-carboxy-2-(4-(2-(5,6,7,8-tetrahydro-1,8-naphthyridin-2-yl)ethyl)benzamido)ethyl)sulfamoyl)-3,5-dimethylphenoxy)butanamido)ethyl)amino)-2-oxoethyl)-1,4,7,10-tetraazacyclododecane-1,4,7-triyl)triacetic acid] | < 1 nM | < 1 nM | – | –
Cc1cc(OCCCC(=O)NCCNC(=O)[C@H](CS(=O)(=O)O)NC(=O)CN2CCN(CC(=O)O)CCN(CC(=O)O)CCN(CC(=O)O)CC2)cc(C)c1S(=O)(=O)N[C@@H](CNC(=O)CCCCCc1ccc2c(n1)NCCC2)C(=O)O [Compound W10, 2,2′,2″-(10-(2-(((R)-1-((2-(4-(4-(N—((S)-1-carboxy-2-(6-(5,6,7,8-tetrahydro-1,8-naphthyridin-2-yl)hexanamido)ethyl)sulfamoyl)-3,5-dimethylphenoxy)butanamido)ethyl)amino)-1-oxo-3-sulfopropan-2-yl)amino)-2-oxoethyl)-1,4,7,10-tetraazacyclododecane-1,4,7-triyl)triacetic acid] | < 1 nM | 1 to 10 nM | – | –
Cc1cc(OCCCC(=O)NCCNC(=O)[C@H](CS(=O)(=O)O)NC(=O)[C@H](CS(=O)(=O)O)NC(=O)CN2CCN(CC(=O)O)CCN(CC(=O)O)CCN(CC(=O)O)CC2)cc(C)c1S(=O)(=O)N[C@@H](CNC(=O)c1ccc(CCc2ccc3c(n2)NCCC3)s1)C(=O)O [Compound X9, 2,2′,2″-(10-((4R,7R)-16-(4-(N—((S)-1-carboxy-2-(5-(2-(5,6,7,8-tetrahydro-1,8-naphthyridin-2-yl)ethyl)thiophene-2-carboxamido)ethyl)sulfamoyl)-3,5-dimethylphenoxy)-2,5,8,13-tetraoxo-4,7-bis(sulfomethyl)-3,6,9,12-tetraazahexadecyl)-1,4,7,10-tetraazacyclododecane-1,4,7-triyl)triacetic acid] | < 1 nM | 1 to 10 nM | – | –
O=C(O)CN1CCN(CC(=O)O)CCN(CC(=O)N[C@@H](CS(=O)(=O)O)C(=O)N[C@@H](CS(=O)(=O)O)C(=O)NCCNC(=O)CCCOc2ccc(S(=O)(=O)N[C@@H](CNC(=O)c3ccc(CCc4ccc5c(n4)NCCC5)cc3)C(=O)O)cc2)CCN(CC(=O)O)CC1 [Compound Y13, 2,2′,2″-(10-((4R,7R)-16-(4-(N—((S)-1-carboxy-2-(4-(2-(5,6,7,8-tetrahydro-1,8-naphthyridin-2-yl)ethyl)benzamido)ethyl)sulfamoyl)phenoxy)-2,5,8,13-tetraoxo-4,7-bis(sulfomethyl)-3,6,9,12-tetraazahexadecyl)-1,4,7,10-tetraazacyclododecane-1,4,7-triyl)triacetic acid hexasodium salt] | < 1 nM | < 1 nM | – | –
Cc1cc(OCCCC(=O)NCCNC(=O)C(CS(=O)(=O)O)NC(=O)CN2CCN3CCN4CCN(CC2)CC(=O)[O][Y]([O]C(=O)C3)[O]C(=O)C4)cc(C)c1S(=O)(=O)NC(CNC(=O)CCCCc1ccc2c(n1)NCCC2)C(=O)O (stereo not shown) [DD] | – | – | < 1 nM | < 1 nM

From patent publication US11426473B2, “Nitrogen-containing compound or salt thereof, or metal complex thereof” (FUJIFILM Corporation, priority 2013, dated 2022)
